Consider 6 compounds from PMC2918699 (European journal of medicinal chemistry, 2010).

Structures are written as SMILES.

A short description of series [1]: GC-MS analysis of stilbenes in mice serum. It is filed as in vivo, SCID mice. The settings on record: GC-MS retention time and mass spectrum compared to standards.
Another series has as its system PCNA. Briefly: PCNA in HT-29 tumors by western blotting and immunohistochemistry. It is filed as in vivo, SCID mice. The settings on record: western blotting and immunohistochemistry of HT-29 tumors. In general terms: Immunoblotting shows a protein as a band on a membrane.
The test system of a further series is p27. Description: p27 in HT-29 tumors by western blotting and immunohistochemistry. The series is classed as in vivo, SCID mice. The settings on record: western blotting and immunohistochemistry of HT-29 tumors.
A further series relates to HT-29 xenograft. Description: HT-29 xenograft tumor growth in SCID mice. The series is classed as in vivo. Particulars: 10 mg/kg i.p. once daily, after 3 weeks.
For a further series, the system named is yeast. The settings on record: yeast assays, mimics calorie restriction by stimulating Sir2; cited from earlier work.

Consider `COc1cc(/C=C\c2ccc(N)cc2)cc(OC)c1` [Compound 4, (Z)-4-(3,5-dimethoxystyryl)aniline], for which, in series [1], the “Configuration (cis/trans) found in the serum” value is recorded as “isomerized to 3”. Same read-out and setting: to `COC(=O)c1ccc(/C=C/c2cc(OC)cc(OC)c2)cc1` [Compound 5, (E)-Methyl-4-(3,5-dimethoxystyryl)benzoate] belongs “retained their configurations”; to `COC(=O)c1ccc(/C=C\c2cc(OC)cc(OC)c2)cc1` [Compound 6, (Z)- Methyl 4-(3,5-dimethoxystyryl)benzoate], “retained their configurations”. Consider `COc1ccc(/C=C/c2cc(OC)cc(OC)c2)cc1` [Compound 9, (E)-1,3-dimethoxy-5-(4-methoxystyryl)benzene], for which the “Configuration (cis/trans) found in the serum” value in series [1] is listed as “retained their configurations”. The “PCNA levels in tumors” value in the series with PCNA is “lowered”. In the series on p27, the “p27 levels in tumors” value is “increased”. Besides, in the series with HT-29 xenograft, the “Tumor volume lower compared to the control” value was determined as 45% and the “Tumor weight decrease compared to the control” value came to 21%. As to `COc1ccc(/C=C\c2cc(OC)cc(OC)c2)cc1` [Compound 10, (Z)-1,3-dimethoxy-5-(4-methoxystyryl)benzene], the “Configuration (cis/trans) found in the serum” value in series [1] is recorded as “retained their configurations”. For the same compound, the “Tumor weight decrease compared to the control” value in the series on HT-29 xenograft is 15%. Take `Oc1ccc(/C=C/c2cc(O)cc(O)c2)cc1` [Compound 17, Resveratrol]: in the series with yeast, the extended lifespan is 70%.
